Entries after “also recorded” stand apart in the source; their conditions may differ.
Experiments:
Assay type in all cases: biochemical
ALuc34 = test: Relative luminescence intensity of lysates of COS-7 cells expressing ALuc34 after adding coelenterazine derivatives; details: for Ratios (A34/RLuc8.6-535): ALuc34 intensity over RLuc8.6-535 intensity, same substrate; for Luminescence intensity ALuc34 ave: COS-7 lysate 10 μL, LAS-4000; for substrate selectivity (RLuc8.6-535:ALuc, 1:x): luminescence intensity of ALuc compared with RLuc8.6-535, same substrate
Protocol: (§1) First, African monkey kidney-derived culture cells COS-7 were cultured in a 96-well plate until the culture area covered 90% of the lower area of the plate. At this stage, the plate wells growing cells were divided into two groups, and pcDNA3.1(+) vector, which expresses ALuc34 or RLuc8.6-535, was introduced into each group by the lipofection technique (TransIT-LT1), followed by further incubation for 16 hours. After incubation, the cells were lysed and an aliquot of the lysates (10 μL) is placed in a fresh 96-well plate. Different luminescent substrates were simultaneously added thereto using a multichannel pipette, and the relative luminescence intensity was immediately measured with a luminescence imaging analyzer LAS-4000 (FujiFilm). […] As used herein, “substrate selectivity” refers to a luminescence intensity of ALuc compared with the luminescence intensity of RLuc8.6-535 in the presence of the same luminescent substrate.

RLuc8.6-535 [1] = molecular target: T1, RLuc8.6-535 (Renilla reniformis, UniProt P27652, A123S/A143M/A55T/C124A/D162E/I163L/K136R/M185L/M253L/S130A/S287L); details: COS-7 lysate 10 μL, LAS-4000
T1 construct: expressed in transfected cells; host or cells: COS-7 (African monkey kidney), lysate
Protocol: as §1

RLuc8.6-535 [2] = molecular target: T1, RLuc8.6-535; details: 5 μL lysate + 30 μL substrate, AB-1850
ALuc = test: Dual assay with or without 0.1% SDS, ALuc luminescence; details: sulfate
Protocol: (§2) It is advantageous for simultaneous measurement of multiple biomarkers if a dual assay can be performed in the presence of two or more bioluminescent enzymes. With this point in mind, luminescence was measured in the presence of two bioluminescent enzymes (ALuc and CLuc) (FIG. 5). First, COS-7 cells were cultured in a 96-well plate, and a plasmid that expresses ALuc or CLuc was transfected into each cellular compartment by lipofection. Under the conditions, CLuc is secreted, but ALuc largely remains inside the cells because of the endoplasmic reticulum localization signal (KDEL) attached to the terminus. 16 hours later, 10 μL of the CLuc culture solution was mixed with 2 μL of ALuc lysate. Then, the luminescence intensity was compared between the cases where 0.1% SDS was added or not, After addition of the luminescent substrates specific to ALuc and CLuc, respectively.

[3] = test system: Cypridina luciferase (CLuc); test: Dual assay with or without 0.1% SDS, CLuc luminescence
Protocol: as §2

T1 sequence (P27652 whole entry A55T/A123S/C124A/S130A/K136R/A143M/D162E/I163L/M185L/M253L/S287L): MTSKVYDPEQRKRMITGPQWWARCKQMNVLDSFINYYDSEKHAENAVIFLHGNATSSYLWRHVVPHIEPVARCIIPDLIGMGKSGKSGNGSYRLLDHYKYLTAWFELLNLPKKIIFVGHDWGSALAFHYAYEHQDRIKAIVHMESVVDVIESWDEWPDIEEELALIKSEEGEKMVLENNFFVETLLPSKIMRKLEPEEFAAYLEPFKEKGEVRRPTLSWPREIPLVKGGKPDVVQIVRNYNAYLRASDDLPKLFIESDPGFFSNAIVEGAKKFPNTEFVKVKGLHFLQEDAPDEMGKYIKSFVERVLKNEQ

Row | Compound | Ratios (A34/RLuc8.6-535) (ALuc34) | Luminescence intensity ALuc34 ave (ALuc34) | Luminescence intensity RLuc8.6-535 ave (RLuc8.6-535 [1]) | luminescence intensity with ALuc (in words) (ALuc34) | substrate selectivity (RLuc8.6-535:ALuc, 1:x) (ALuc34) | Spectrum peak RLuc8.6-535 (RLuc8.6-535 [2]) | luminescent substrate selectivity (ALuc34; ALuc versus RLuc8.6-535) | effect on ALuc luminescence activity (ALuc) | effect on CLuc luminescence activity [3]
1 | O=c1c(Cc2ccc3ccccc3c2)nc2c(Cc3ccccc3)[nH]c(-c3ccc(O)cc3)cn1-2 | 81 | 172323 RLU/μg/sec/mm2 | 2132 RLU/μg/sec/mm2 | – | – | – | – | – | –
2 | O=c1c(Cc2ccccc2)nc2c(Cc3ccccc3)[nH]c(-c3ccccc3)cn1-2 [CTZ 400, coelenterazine 400A] | 3610 | 11624 RLU/μg/sec/mm2 | 3 RLU/μg/sec/mm2 | luminescence intensity was almost not observed at all | – | – | – | – | –
3 | O=c1c(Cc2ccc(F)cc2)nc2c(Cc3ccccc3)[nH]c(-c3ccc(O)cc3)cn1-2 [CTZ f, coelenterazine f] | 134 | 956530 RLU/μg/sec/mm2 | 7151 RLU/μg/sec/mm2 | – | 134 | 547 nm | – | – | –
4 | Oc1ccc(-c2cn3c(O)c(Cc4ccc(F)cc4)nc3c(CC3CCCC3)n2)cc1 [CTZ fcp, coelenterazine fcp, reference compound] | 3 | 3712 RLU/μg/sec/mm2 | 1217 RLU/μg/sec/mm2 | – | – | – | – | – | –
5 | O=c1c(Cc2ccccc2)nc2c(Cc3ccccc3)[nH]c(-c3ccc(O)cc3)cn1-2 [CTZ h, coelenterazine h] | 91 | 1168658 RLU/μg/sec/mm2 | 12812 RLU/μg/sec/mm2 | strong luminescence | – | 545 nm | – | – | –
6 | Oc1ccc(-c2cn3c(O)c(Cc4ccccc4)nc3c(CC3CCCC3)n2)cc1 [CTZ hcp, coelenterazine hcp, reference compound] | 3 | 5191 RLU/μg/sec/mm2 | 2058 RLU/μg/sec/mm2 | – | – | – | – | – | –
7 | O=c1c(Cc2ccc(I)cc2)nc2c(Cc3ccccc3)[nH]c(-c3ccc(O)cc3)cn1-2 [CTZ i, coelenterazine i] | 9398 | 913540 RLU/μg/sec/mm2 | 97 RLU/μg/sec/mm2 | high luminescence intensity | 9400 | – | about 10,000 fold | – | –
8 | Oc1ccc(Cc2nc3c(CC4CCCC4)nc(-c4ccc(O)cc4)cn3c2O)cc1 [CTZ op, coelenterazine cp, reference compound] | 8 | 40564 RLU/μg/sec/mm2 | 5354 RLU/μg/sec/mm2 | – | – | – | – | – | –
9 | CCCCCCCCCCCCOS(=O)(=O)[O-].[Na+] [SDS, sodium dodecyl sulfate] | – | – | – | – | – | – | – | substantially deactivated; also recorded: mostly quenched | somewhat maintained luminescence activity
10 | coelenterazine ip [CTZ ip, reference compound] | 4 | 8379 RLU/μg/sec/mm2 | 2200 RLU/μg/sec/mm2 | – | – | 535 nm | – | – | –

Reference: patent publication US10214766B2, “Luminescent substrate for use in artificial bioluminescent enzyme” (NATIONAL INSTITUTE OF ADVANCED INDUSTRIAL SCIENCE AND …, priority 2013, dated 2019)
